Test results published in patent US7504423B2, “α-amino acid derivatives and use thereof as medicines” (Mitsubishi Tanabe Pharma Corporation, priority 2003, dated 2009).

Legend:
Human plasma DPP-IV = biological target: T1, Human plasma DPP-IV (Homo sapiens, UniProt P27487); assay: Plasma DPP-IV inhibitory activity (fluorescence assay, Gly-Pro-MCA substrate), human plasma; assay type: biochemical; conditions: human plasma (10-fold diluted), room temperature, 60 min
T1 construct: Human plasma DPP-IV; from tissue; host or cells: human plasma
T1 sequence (P27487 39-766 limits assumed): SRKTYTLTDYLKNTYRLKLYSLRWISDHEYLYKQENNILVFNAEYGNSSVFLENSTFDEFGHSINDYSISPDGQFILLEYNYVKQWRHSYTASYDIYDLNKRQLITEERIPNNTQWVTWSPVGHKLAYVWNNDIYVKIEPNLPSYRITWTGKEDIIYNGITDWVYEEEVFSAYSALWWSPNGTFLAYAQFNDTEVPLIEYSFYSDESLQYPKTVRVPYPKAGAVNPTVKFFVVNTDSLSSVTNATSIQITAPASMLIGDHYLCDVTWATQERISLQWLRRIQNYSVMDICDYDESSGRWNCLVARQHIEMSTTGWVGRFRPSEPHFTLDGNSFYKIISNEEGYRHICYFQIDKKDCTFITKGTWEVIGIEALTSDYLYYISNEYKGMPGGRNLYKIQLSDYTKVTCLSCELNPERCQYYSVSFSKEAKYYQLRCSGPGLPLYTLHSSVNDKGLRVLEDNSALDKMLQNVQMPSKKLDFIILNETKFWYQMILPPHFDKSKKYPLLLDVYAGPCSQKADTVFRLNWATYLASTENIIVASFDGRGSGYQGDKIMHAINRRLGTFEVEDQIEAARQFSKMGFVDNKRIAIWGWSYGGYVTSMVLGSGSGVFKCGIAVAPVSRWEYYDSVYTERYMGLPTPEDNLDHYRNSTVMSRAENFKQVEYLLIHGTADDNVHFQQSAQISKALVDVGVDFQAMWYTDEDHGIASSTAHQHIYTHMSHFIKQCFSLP
Description: (§1) (Plasma DPP-IV Inhibitory Activity)
(§2) The plasma DPP-IV inhibitory activity of human and rat was measured by the fluorescence assay method. Using Gly-Pro-MCA (Peptide Institute Inc.) as a DPP-IV specific fluorescent substrate, reaction solutions having the following compositions and containing test substances having various concentrations were incubated at room temperature for 60 min and the measured (SPECTRA FLUOR, TECAN) fluorescent intensity (Excitation 360 nm/Emission 465 nm) was taken as the DPP-IV activity.
(§3) As a buffer, 0.003% Brij-35-containing phosphate buffer (PBS, Sigma-Aldrich Co.) was used.
(§4) A reaction solution free of the test substance was used as a control.
(§5) The inhibitory rate of the test substance relative to the reaction of the control was calculated, and IC50 values were determined by logistic analysis. The IC50 values of the plasma DPP-IV inhibitory activity of the present invention as determined by the above method are shown in the following table.

Rat plasma DPP-IV = biological target: T2, Rat plasma DPP-IV (Rattus norvegicus, UniProt P14740); assay: Plasma DPP-IV inhibitory activity (fluorescence assay, Gly-Pro-MCA substrate), rat plasma; assay type: biochemical; conditions: rat plasma (10-fold diluted), room temperature, 60 min
T2 construct: Rat plasma DPP-IV; from tissue; host or cells: rat plasma
T2 sequence (P14740 38-767 limits assumed): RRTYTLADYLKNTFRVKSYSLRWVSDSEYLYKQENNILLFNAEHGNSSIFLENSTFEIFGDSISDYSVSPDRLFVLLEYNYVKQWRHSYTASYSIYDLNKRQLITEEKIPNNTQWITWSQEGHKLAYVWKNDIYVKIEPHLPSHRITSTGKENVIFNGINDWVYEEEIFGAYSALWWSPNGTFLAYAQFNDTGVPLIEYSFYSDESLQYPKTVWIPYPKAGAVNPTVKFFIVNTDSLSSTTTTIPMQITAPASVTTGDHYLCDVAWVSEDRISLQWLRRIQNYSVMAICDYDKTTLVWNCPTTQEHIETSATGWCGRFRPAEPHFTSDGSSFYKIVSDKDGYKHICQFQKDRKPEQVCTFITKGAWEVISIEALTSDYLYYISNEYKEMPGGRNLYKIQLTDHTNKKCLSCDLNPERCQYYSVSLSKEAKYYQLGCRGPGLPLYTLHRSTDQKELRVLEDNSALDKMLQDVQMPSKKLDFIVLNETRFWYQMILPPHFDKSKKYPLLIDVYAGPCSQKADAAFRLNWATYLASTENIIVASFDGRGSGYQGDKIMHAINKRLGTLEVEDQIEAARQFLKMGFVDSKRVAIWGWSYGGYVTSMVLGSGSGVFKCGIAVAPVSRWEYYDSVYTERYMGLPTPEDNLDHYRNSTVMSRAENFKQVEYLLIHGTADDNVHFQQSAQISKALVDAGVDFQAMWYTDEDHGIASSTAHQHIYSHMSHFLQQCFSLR
Description: as §1, §2, §3, §4, §5

IC50 (Human plasma DPP-IV)	IC50 (Rat plasma DPP-IV)	SMILES
1.6 nM	1.4 nM	N#Cc1ccc(N2CCN([C@H]3CC[C@@H]([C@H](N)C(=O)N4CCSC4)CC3)CC2)nc1 [Example 2, 3-((S)-2-amino-2-{cis-4-[4-(5-cyano-2-pyridyl)-1-piperazinyl]-1-cyclohexyl}acetyl)-1,3-thiazolidine]
2.1 nM	1.4 nM	N[C@H](C(=O)N1CCSC1)[C@H]1CC[C@@H](N2CCN(c3nc4ccccc4s3)CC2)CC1 [Example 14, 3-((S)-2-amino-2-{cis-4-[4-(2-benzothiazolyl)-1-piperazinyl]-1-cyclohexyl}acetyl)-1,3-thiazolidine]
